From US20050096347A1, “Beta3-Adrenoreceptor agonists, agonist compositions and methods of using” (Molecular Design International, Inc., priority 1997, published 2005)
Counter-ions that a name gives are not always drawn. Like-named read-outs stand apart in the source and are kept apart here.

What was measured:
human β2 Adrenoreceptor = target: T1, human β2 Adrenoreceptor (Homo sapiens, UniProt P07550); assay: Radioligand competition binding, human β2 adrenoreceptor expressed in CHO cells ([125I]ICYP); settings: for pKi ± SEM, Human β2 Adrenoreceptor CHO: [125I]ICYP as radioligand, N = 4-9; for P.R. (potency ratio), Human β2 Adrenoreceptor CHO: relative to cmpd. 1 (TMQ), PR = antilog [pKi(drug) − pKi(TMQ)]
T1 construct: expressed in transfected cells

[1] = target: T2, Thromboxane A2/Prostaglandin H2 (TP) receptor (Homo sapiens, UniProt P21731); assay: Radioligand competition binding, TP receptor sites in human platelets ([3H]SQ 29,548); settings: for pKi ± SEM, Human TP receptors: [3H]SQ 29,548 as radioligand, platelets, N = 4-9; for P.R. (potency ratio), Human TP receptors: relative to cmpd. 1 (TMQ), PR = antilog [pKi(drug) − pKi(TMQ)]
T2 construct: endogenous in cells; host or cells: human platelets (from platelet rich plasma)
T2 sequence (P21731 1-343): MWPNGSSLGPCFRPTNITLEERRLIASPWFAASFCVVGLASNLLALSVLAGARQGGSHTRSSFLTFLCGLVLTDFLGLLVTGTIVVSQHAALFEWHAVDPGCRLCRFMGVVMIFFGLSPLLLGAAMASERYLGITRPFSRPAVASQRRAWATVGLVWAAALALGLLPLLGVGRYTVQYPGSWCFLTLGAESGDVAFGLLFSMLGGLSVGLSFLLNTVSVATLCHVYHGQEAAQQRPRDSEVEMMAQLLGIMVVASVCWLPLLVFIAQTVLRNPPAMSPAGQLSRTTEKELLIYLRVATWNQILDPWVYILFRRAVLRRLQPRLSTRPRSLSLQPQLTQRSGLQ
Protocol: For binding experiments, human platelet rich plasma (PRP) was centrifuged and re-suspended in 50 mM Tris-saline buffer, pH 7.4. […] Filters were placed in plastic scintillation vials containing 10 mL of an emulsion-type scintillation mixture and radioactivity measured by liquid scintillation spectrometry.

Human β3 Adrenoreceptors = target: T3, Human β3 Adrenoreceptors (Homo sapiens, UniProt P13945); assay: hβ3 cAMP functional activity in CHO cells expressing human β3 adrenoreceptors (Table 8); type: cell-based; settings: for EC50: read-out: hβ3 cAMP EC50(nM) +/−SEM
T3 construct: expressed in transfected cells

human β1 Adrenoreceptor = human β1 Adrenoreceptor (Homo sapiens, UniProt P08588); assay: Radioligand competition binding, human β1 adrenoreceptor expressed in CHO cells ([125I]ICYP)
Protocol: Competitive and comparative binding experiments on β1 Adrenoreceptors, β2 Adrenoreceptors and β3-Adrenoreceptors expressed in CHO cells were performed as described previously. […] CHO cells grown to a confluence in 150-mL flasks were detached into Ham's F-12 medium after treatment with 0.05% trypsin-0.53 mM EDTA solution. The cells were then pelleted and washed three times with Tris-EDTA buffer (50 mM Tris-HCl, 150 mM NaCl, 20 mM EDTA, pH 7.4) and resuspended in the same buffer.
Competition binding experiments were performed in duplicates using these whole cells. […] The final volume in each tube was 0.25 mL. Nonspecific binding (5-30%) was determined in the presence of 1 μM (±)-propranolol. Incubations were carried out for 60 min at 37° C. Binding reactions were terminated by rapid filtration through Whatman GF/B glass fiber filters on a Brandel model 12-R tissue harvester. Filters were washed twice with ice cold Tris-EDTA buffer to remove free ICYP. The filters were dried under tissue harvester vacuum and radioactivity was measured by gamma scintillation spectrometry (Beckman model 8000 gamma counter, Palo Alto, Calif.). Specific binding to β Adrenoreceptor sites in these cells varied from 94 to 100%
Inhibitory concentration-50 (IC50) value of each competing drug was determined graphically from individual plots of percent radioligand bound versus log drug concentration on O-adrenoceptors and human platelets. […] Dissociation constants (Ki) for each competing drug were calculated using the equation: [formula] and the data expressed as pKi (i.e., −log Ki) values.

rat-β3-AR [2] = target: T4, rat-β3-AR (Rattus norvegicus, UniProt P26255); assay: Binding in CHO cells expressing rat β3-AR; settings: mean ± SEM (n in parentheses), read-out: pKi (−log Ki) for binding, rat-β3-AR (converted)
T4 construct: expressed in transfected cells; host or cells: CHO cells

rat-β3-AR [3] = target: T4, rat-β3-AR; assay: cAMP accumulation in CHO cells expressing rat β3-AR; type: cell-based; settings: for EC50: read-out: pKact (−log EC50) for cAMP accumulation, rat-β3-AR (converted); for Emax: relative to that of (−)-isoproterenol, CHO cells expressing rat-β3-AR, read-out: Emax, maximal cAMP accumulation
Protocol: cAMP Radioimmunoassay (CAMP-RIA Assay). […] The precipitated protein was dissolved in 0.1N NaOH.

[4] = CHO cells (Table 8), read-out: hβ2 Binding ki
[5] = CHO cells, mean ± SEM (n in parentheses)

T1 sequence (P07550 whole entry): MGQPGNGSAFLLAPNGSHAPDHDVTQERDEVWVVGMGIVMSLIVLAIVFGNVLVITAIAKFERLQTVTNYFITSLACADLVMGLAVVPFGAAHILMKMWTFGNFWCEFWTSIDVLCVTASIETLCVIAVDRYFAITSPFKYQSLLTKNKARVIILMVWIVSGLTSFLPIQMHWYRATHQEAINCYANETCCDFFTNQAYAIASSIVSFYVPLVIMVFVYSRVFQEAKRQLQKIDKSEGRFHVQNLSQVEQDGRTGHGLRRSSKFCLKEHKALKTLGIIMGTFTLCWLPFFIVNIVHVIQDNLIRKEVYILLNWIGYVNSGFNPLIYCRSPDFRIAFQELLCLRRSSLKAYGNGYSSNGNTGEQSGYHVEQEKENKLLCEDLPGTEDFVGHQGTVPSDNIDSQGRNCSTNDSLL
T4 sequence (P26255 whole entry): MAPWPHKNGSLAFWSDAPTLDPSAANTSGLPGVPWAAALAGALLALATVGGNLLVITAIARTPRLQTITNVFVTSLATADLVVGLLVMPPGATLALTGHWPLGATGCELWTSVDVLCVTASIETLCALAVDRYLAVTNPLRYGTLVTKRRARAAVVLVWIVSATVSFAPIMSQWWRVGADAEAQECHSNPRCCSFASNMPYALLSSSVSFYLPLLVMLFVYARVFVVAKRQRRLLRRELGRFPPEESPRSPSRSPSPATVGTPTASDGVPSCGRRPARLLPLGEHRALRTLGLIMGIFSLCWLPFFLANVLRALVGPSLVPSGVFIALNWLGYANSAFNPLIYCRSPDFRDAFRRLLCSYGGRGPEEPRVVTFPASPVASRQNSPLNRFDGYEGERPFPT
T3 sequence (P13945 whole entry): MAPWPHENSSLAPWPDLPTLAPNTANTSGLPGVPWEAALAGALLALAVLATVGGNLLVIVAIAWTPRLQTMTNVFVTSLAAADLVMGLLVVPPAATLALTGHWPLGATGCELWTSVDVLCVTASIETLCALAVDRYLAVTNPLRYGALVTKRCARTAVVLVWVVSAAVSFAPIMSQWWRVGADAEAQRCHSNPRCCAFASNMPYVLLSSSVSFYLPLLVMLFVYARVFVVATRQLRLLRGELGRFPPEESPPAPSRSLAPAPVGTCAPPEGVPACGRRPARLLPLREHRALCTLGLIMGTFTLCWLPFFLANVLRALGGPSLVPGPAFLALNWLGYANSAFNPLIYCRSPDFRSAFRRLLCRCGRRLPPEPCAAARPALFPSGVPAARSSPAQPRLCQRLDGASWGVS
Chain of human β1 Adrenoreceptor (P08588 whole entry): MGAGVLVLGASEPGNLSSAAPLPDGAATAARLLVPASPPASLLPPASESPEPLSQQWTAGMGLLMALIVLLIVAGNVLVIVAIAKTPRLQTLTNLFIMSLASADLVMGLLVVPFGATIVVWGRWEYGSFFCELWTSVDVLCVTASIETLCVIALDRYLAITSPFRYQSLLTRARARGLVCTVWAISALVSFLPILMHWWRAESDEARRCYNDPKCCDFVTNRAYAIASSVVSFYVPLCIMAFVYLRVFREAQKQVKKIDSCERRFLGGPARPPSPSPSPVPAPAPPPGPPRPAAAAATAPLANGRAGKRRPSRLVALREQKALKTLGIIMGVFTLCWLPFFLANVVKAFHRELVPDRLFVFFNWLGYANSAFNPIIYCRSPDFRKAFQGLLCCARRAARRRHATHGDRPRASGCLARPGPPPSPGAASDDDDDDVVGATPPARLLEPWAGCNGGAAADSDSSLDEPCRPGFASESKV

Row | EC50 (Human β3 Adrenoreceptors) [nM] | Ki (rat-β3-AR [2]) [nM] | Structure (SMILES) | pKi ± SEM, Human β2 Adrenoreceptor CHO (human β2 Adrenoreceptor) | P.R. (potency ratio), Human β2 Adrenoreceptor CHO (human β2 Adrenoreceptor) | pKi ± SEM, Human TP receptors [1] | P.R. (potency ratio), Human TP receptors [1] | other results
1 | – | – | Br.Oc1cc2c(cc1O)C(Cc1cc(I)c(I)c(I)c1)NCC2 (centres unmarked) [Compound 21b, 6,7-Dihydroxy-1-(3,4,5-triiodobenzyl)-1,2,3,4-tetrahydroisoquinoline Hydrobromide] | 8.82 | 29 | 4.22 | 0.003 | –
2 | 33.5 | – | COc1c(I)cc(CC2NCCc3cc(O)ccc32)cc1I (centres unmarked) [drawing 83] | – | – | – | – | Ki (human β2 Adrenoreceptor; [4]): 47 nM; hβ3 cAMP % Iso +/−SEM (Human β3 Adrenoreceptors): 89 +/− 5 % Iso; Ki (human β1 Adrenoreceptor): 278 nM
3 | – | 457 | COc1c(I)cc(CC2NCCc3cc(O)c(O)cc32)cc1I (centres unmarked) [Compound 2, reference compound] | – | – | 7.33 | – | EC50 (rat-β3-AR [3]; [5]): 0.398 nM; Emax (rat-β3-AR [3]): 96.9 ± 10.1%
4 | – | 724 | Cl.Cl.Nc1c(I)cc(CC2NCCc3cc(O)c(O)cc32)cc1I (centres unmarked) [Compound 21c, 1-(4-Amino-3,5-diiodobenzyl)-6,7-dihydroxy-1,2,3,4-tetrahydroisoquinoline Dihydrochloride] | 8.81 | 28 | 6.73 | 0.87 | fold reduction in TP receptor binding affinity compared to 2 [1]: 3 fold
5 | – | – | Br.Oc1cc2c(cc1O)C(Cc1cc(I)c(O)c(I)c1)NCC2 (centres unmarked) [Compound 18, 6,7-Dihydroxy-1-(4-hydroxy-3,5-diiodobenzyl)-1,2,3,4-tetrahydroisoquinoline Hydrobromide] | 7.93 | – | 4.72 | – | –
6 | 506 | – | COc1c(I)cc(CC2NCCc3nc(N)sc32)cc1I (centres unmarked) | – | – | – | – | Ki (human β2 Adrenoreceptor): 534 nM
7 | – | 14500 | COc1cc2c(cc1OC)C(Cc1cc(I)c(NC(C)=O)c(I)c1)NCC2 (centres unmarked) [6,7-Dimethoxy-acetamidoDITMQ, 1-(4-Acetamido-3,5-diiodobenzyl)-6,7-dimethoxy-1,2,3,4-tetrahydroisoquinoline Hydrochloride] | – | – | – | – | –
8 | – | 51300 | COc1cc(CC2NCCc3cc4c(cc32)OCO4)cc(OC)c1OC (centres unmarked) [6,7-Methylenedioxy TMQ] | – | – | – | – | EC50 (rat-β3-AR [3]; [5]): 1200 nM; Emax (rat-β3-AR [3]): 70.9 ± 4.41%
9 | – | 1580 | Oc1cc2c(cc1O)C(Cc1cc(I)cc(I)c1)NCC2 (centres unmarked) [DemethoxyDITMQ] | – | – | – | – | EC50 (rat-β3-AR [3]; [5]): 1.82 nM; Emax (rat-β3-AR [3]): 97.7 ± 5.85%
10 | – | 132000 | COc1cc2c(cc1OC)C(Cc1cc(OC)c(OC)c(OC)c1)NCC2 (centres unmarked) [6,7-Dimethoxy TMQ, reference compound] | – | – | – | – | pKact (−log EC50) for cAMP accumulation, rat-β3-AR (rat-β3-AR [3]; [5]): no activity upto 3 × 10^−5 M
11 | < 4 | – | COc1c(I)cc(CC2NCCc3cc(O)c(O)cc32)cc1I (centres unmarked) [drawing 80] | – | – | – | – | Ki (human β2 Adrenoreceptor; [4]): 3.1 nM
12 | – | – | Cl.Oc1cc2c(cc1O)C(Cc1cc(C(F)(F)F)cc(C(F)(F)F)c1)NCC2 (centres unmarked) [Compound 27, 1-(3,5-Bis-trifluoromethylbenzyl)-6,7-dihydroxy-1,2,3,4-tetrahydroisoquinoline Hydrochloride] | 5.36 | 0.01 | 4.08 ± 0.02 | 0.002 | –
13 | < 1 | – | COc1cc(CC2NCCc3cc(O)c(O)cc32)cc(OC)c1OC (centres unmarked) | – | – | – | – | –
14 | < 4 | – | Nc1c(I)cc(CC2NCCc3cc(O)c(O)cc32)cc1I (centres unmarked) | – | – | – | – | hβ3 cAMP % Iso +/−SEM (Human β3 Adrenoreceptors): 108 +/− 2 % Iso; Ki (human β1 Adrenoreceptor): 63.4 nM
15 | – | – | CC(=O)Nc1ccc(CC2NCCc3cc(O)c(O)cc32)cc1I.I (centres unmarked) [Compound 26a, 1-(4-Acetamido-3-iodobenzyl)-6,7-dihydroxy-1,2,3,4-tetrahydroisoquinoline Hydroiodide] | 8.11 | 5.6 | 5.83 | 0.11 | fold decrease in TP receptor binding affinity on removal of one iodine (24 vs 21c, 26a vs 15) [1]: 5 fold
16 | – | – | I.O=C(Nc1ccc(CC2NCCc3cc(O)c(O)cc32)cc1I)c1ccccc1 (centres unmarked) [Compound 26b, 1-(4-Benzoylamino-3-iodobenzyl)-6,7-dihydroxy-1,2,3,4-tetrahydroisoquinoline Hydroiodide] | 8.70 | 22 | 5.27 ± 0.13 | 0.03 | –
